Assay results taken from BindingDB's records for doi:10.1016/j.bmcl.2009.01.088 (Abbott Laboratories, 2009).

Biological target: Mitogen-activated protein kinase kinase kinase 8 (Homo sapiens, UniProt P41279)
Test: COT HTRF Assay
Details: pH 7.5; 22 °C
Procedure: The COT direct HTRF assay was carried out using biotin-MEK1 as a substrate. The reaction was carried out in black 96 half-well plates. At designated time points, EDTA was added to quench the reaction. Detection reagents were then added to each well to make anti-phospho-MEK1-Eu antibody and SAXL. The plates were incubated, and then read using the RUBYstar HTRF reader.

Mitogen-activated protein kinase kinase kinase 8, sequence (P41279 whole entry): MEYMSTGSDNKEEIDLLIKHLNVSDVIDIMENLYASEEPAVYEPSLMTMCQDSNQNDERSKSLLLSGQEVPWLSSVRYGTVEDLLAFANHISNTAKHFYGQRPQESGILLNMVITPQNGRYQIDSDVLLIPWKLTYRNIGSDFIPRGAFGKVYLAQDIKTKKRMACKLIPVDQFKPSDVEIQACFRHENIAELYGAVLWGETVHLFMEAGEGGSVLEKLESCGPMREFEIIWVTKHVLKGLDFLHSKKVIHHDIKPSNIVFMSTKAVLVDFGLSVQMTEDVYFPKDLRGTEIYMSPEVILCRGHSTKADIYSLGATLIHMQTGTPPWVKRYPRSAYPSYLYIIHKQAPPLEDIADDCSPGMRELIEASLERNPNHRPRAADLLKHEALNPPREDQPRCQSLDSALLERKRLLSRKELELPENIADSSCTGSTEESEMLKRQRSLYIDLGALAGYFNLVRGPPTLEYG

- IC50: 1 µM
SMILES: O=C(O)c1cc2c(Oc3ccc(I)cc3)cncc2s1
